In patent US20250177364A1, “COMBINATION THERAPIES FOR BREAST CANCER” (Genentech, Inc., priority 2022, published 2025):

Assays:
HCC1419 cells = experiment: Anti-proliferative activity, growth-rate (GR) inhibition method, CyQUANT; format: cell-based; settings: 6 days after drug treatment, control GR=1, giredestrant 0.3 μM, trastuzumab and pertuzumab 30 μg/ml each
Procedure: (§1) FIG. 3 depicts in vitro anti-proliferative activity of ER inhibition by giredestrant, and/or HER2 inhibition by the combination of trastuzumab and pertuzumab, assessed using the growth rate (GR) method in Example 1. Growth rate (GR) under control conditions is set to 1; lower growth rates equate to a greater anti-proliferative effect. Individual points reflect GR values at 0.3 μM giredestrant, and at […] trastuzumab and pertuzumab. Materials and Methods: ER+/HER2+ cell lines UACC-812, HCC1419 and ZR-75-30 cells were plated in 50 μL culture media in 384-well plates. Cells were incubated in humidified incubator overnight (37 degree, 5% CO2). Test materials were dispensed into 384-well plate on day 1; giredestrant was evaluated as a 9-point dose response (3-fold dose dilutions from a maximum concentration of 300 nM), and traztuzumab and pertuzumab were evaluated as a fixed dose at 30 μg/ml each. Fluorescence-based cell proliferation (CyQUANT®; ThermoFisher Scientific, Cat #C7026) readings were taken at day 1 to establish a baseline, and at 6 days following drug treatment. Analysis of the drug response was performed using the growth-rate (GR) inhibition method to avoid biases between slow and fast-growing lines (Hafner et al., Nat Methods 2016 June; 13 (6): 521-7)).

UACC-812 cells = experiment: as above; format: cell-based; settings: 6 days after drug treatment, control GR=1, giredestrant 0.3 μM, trastuzumab and pertuzumab 30 μg/ml each
Procedure: as §1

ZR-75-30 cells = experiment: as above; format: cell-based; settings: 6 days after drug treatment, control GR=1, giredestrant 0.3 μM, trastuzumab and pertuzumab 30 μg/ml each
Procedure: FIG. 3 depicts in vitro anti-proliferative activity of ER inhibition by giredestrant, and/or HER2 inhibition by the combination of trastuzumab and pertuzumab, assessed using the growth rate (GR) method in Example 1. Growth rate (GR) under control conditions is set to 1; lower growth rates equate to a greater anti-proliferative effect. Individual points reflect GR values at 0.3 μM giredestrant, and at […] trastuzumab and pertuzumab.
Materials and Methods: ER+/HER2+ cell lines UACC-812, HCC1419 and ZR-75-30 cells were plated in 50 μL culture media in 384-well plates. Cells were incubated in humidified incubator overnight (37 degree, 5% CO2). Test materials were dispensed into 384-well plate on day 1; giredestrant was evaluated as a 9-point dose response (3-fold dose dilutions from a maximum concentration of 300 nM), and traztuzumab and pertuzumab were evaluated as a fixed dose at 30 μg/ml each. Fluorescence-based cell proliferation (CyQUANT®; ThermoFisher Scientific, Cat #C7026) readings were taken at day 1 to establish a baseline, and at 6 days following drug treatment. Analysis of the drug response was performed using the growth-rate (GR) inhibition method to avoid biases between slow and fast-growing lines (Hafner et al., Nat Methods 2016 June; 13 (6): 521-7)). […]

[1] = test system: ER (ligand-binding domain of wild-type and mutant ER); settings: cited from earlier work
[2] = test system: ER-positive BC cell lines; settings: multiple ER-positive BC cell lines, including cells with ER mutations; cited from earlier work
[3] = test system: ER-positive, HER2-negative ABC; settings: 30 mg daily; previously treated patients; cited from earlier work
[4] = test system: ER-positive, HER2-negative EBC; settings: neoadjuvant; cited from earlier work

C[C@@H]1Cc2c([nH]c3ccccc23)[C@@H](c2c(F)cc(NC3CN(CCCF)C3)cc2F)N1CC(F)(F)CO [giredestrant, 3-((1R,3R)-1-(2,6-difluoro-4-((1-(3-fluoropropyl)azetidin-3-yl)amino)phenyl)-3-methyl-1,3,4,9-tetrahydro-2H-pyrido[3,4-b]indol-2-yl)-2,2-difluoropropan-1-ol]
Growth rate (GR) value (HCC1419 cells): < 0.5 | Growth rate (GR) value (UACC-812 cells): < 0.5 | Growth rate (GR) value (ZR-75-30 cells): > 0.75 | Potency compared to fulvestrant, tamoxifen and other oral SERDs ([1]; Liang et al.): higher potency | Potency of competitive binding to the ER ([1]; competes with estrogens): low nanomolar potency | Inhibition of proliferation [2]: potently inhibits | Clinical activity [3]: promising signs of clinical activity | Safety [3]: safe | Ki67 suppression and complete cell cycle arrest versus anastrozole [4]: superior to anastrozole
